From patent publication US20120270929A1, “MODULATION OF TTC39 EXPRESSION TO INCREASE HDL” (ISIS Pharmaceuticals, Inc., priority 2009, published 2012)
Oligonucleotides are written 5' to 3', each unit as a sugar letter and its base; * is a phosphorothioate linkage, no mark a phosphodiester; rarer units and linkages stand in square brackets, end groups in braces. Plain capitals give the bases only. e = 2'-O-(2-methoxyethyl) (MOE); [5mC] = 5-methylcytosine; d = 2'-deoxy (DNA)

What was measured:
murine TTC39A mRNA [1] = experiment: Dose-dependent antisense inhibition of murine TTC39A in b.END cells; format: cell-based, mouse; conditions: ~16 h; for IC50: cytofectin
Experimental: Cells were plated at a density of 3,500 cells per well and transfected using cytofectin reagent with 4.375 nM, 8.75 nM, 17.5 nM, 35 nM, 70 nM, and 140 nM concentrations of antisense oligonucleotide, as specified in Table 28. After a treatment period of approximately 16 hours, RNA was isolated from the cells and TTC39A mRNA levels were measured by quantitative real-time PCR. Murine primer probe set RTS3262 was used to measure mRNA levels. TTC39A mRNA levels were adjusted according to total RNA content, as measured by RIBOGREEN®. Results are presented as percent inhibition of TTC39A, relative to untreated control cells.

murine TTC39A mRNA [2] = experiment: Antisense inhibition of mouse TTC39A in b.END cells, single dose; format: cell-based; conditions: 70 nM, cytofectin, ~24 h, vs untreated control
Experimental: Antisense oligonucleotides were designed targeting a TTC39A nucleic acid and were tested for their effects on TTC39A mRNA in vitro. Cultured b.END cells at a density of 4,000 cells per well were transfected using cytofectin reagent with 70 nM antisense oligonucleotide. After a treatment period of approximately 24 hours, RNA was isolated from the cells and TTC39A mRNA levels were measured by quantitative real-time PCR. Mouse primer probe set RTS3262 (forward sequence TGTGCGTCATGCTGTTGCT, designated herein as SEQ ID NO: 113; reverse sequence […], designated herein as SEQ ID NO: 114; probe sequence […], designated herein as SEQ ID NO: 115). TTC39A mRNA levels were adjusted according to total RNA content, as measured by RIBOGREEN®. Results are presented as percent inhibition of TTC39A, relative to untreated control cells.
The chimeric antisense oligonucleotides targeting TTC39A were designed as 5-10-5 MOE gapmers. The gapmers are 20 nucleotides in length, wherein the central gap segment is comprised of ten 2′-deoxynucleotides and is flanked on both sides (in the 5′ and 3′ directions) by wings comprising five nucleotides each. Each nucleotide in the 5′ wing segment and each nucleotide in the 3′ wing segment has a 2′-MOE modification. The internucleoside linkages throughout each gapmer are phosphorothioate (P═S) linkages. All cytosine residues throughout each gapmer are 5-methylcytosines. “Mouse Target start site” indicates the 5′-most nucleotide to which the gapmer is targeted in a mouse nucleic acid sequence.

murine TTC39C mRNA [3] = experiment: Antisense inhibition of mouse TTC39C in mouse primary hepatocytes, single dose; format: cell-based; conditions: 8,000 nM antisense oligonucleotide, electroporation, approximately 24 hours, TTC39C mRNA by real-time PCR (RTS3266), relative to untreated control cells
Experimental: Antisense oligonucleotides were designed targeting a TTC39C nucleic acid and were tested for their effects on TTC39C mRNA in vitro. Cultured mouse primary hepatocytes at a density of 30,000 cells per well were transfected by electroporation with 8,000 nM antisense oligonucleotide. After a treatment period of approximately 24 hours, RNA was isolated from the cells and TTC39C mRNA levels were measured by quantitative real-time PCR. Mouse primer probe set RTS3266 (forward sequence […], designated herein as SEQ ID NO: 140; reverse sequence […], designated herein as SEQ ID NO: 141; probe sequence […], designated herein as SEQ ID NO: 142). TTC39C mRNA levels were adjusted according to total RNA content, as measured by RIBOGREEN®. Results are presented as percent inhibition of TTC39C, relative to untreated control cells.
The chimeric antisense oligonucleotides targeting TTC39C were designed as 5-10-5 MOE gapmers. The gapmers are 20 nucleotides in length, wherein the central gap segment is comprised of ten 2′-deoxynucleotides and is flanked on both sides (in the 5′ and 3′ directions) by wings comprising five nucleotides each. Each nucleotide in the 5′ wing segment and each nucleotide in the 3′ wing segment has a 2′-MOE modification. The internucleoside linkages throughout each gapmer are phosphorothioate (P═S) linkages. All cytosine residues throughout each gapmer are 5-methylcytosines. “Mouse Target start site” indicates the 5′-most nucleotide to which the gapmer is targeted in the mouse gene sequence.

murine TTC39C mRNA [4] = experiment: Dose-dependent antisense inhibition of murine TTC39C in mouse primary hepatocytes; format: cell-based; conditions: electroporation, ~16 h; for IC50: mouse primary hepatocytes
Method in brief: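 Mouse primary hepatocytes (30,000/well) electroporated with antisense oligonucleotide at 500, 1,000, 2,000, 4,000 or 8,000 nM and harvested after about 16 h. TTC39C mRNA quantified by RT-qPCR (primer probe set RTS3266), normalised to RIBOGREEN total RNA; percent inhibition versus untreated cells.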

murine TTC39B mRNA [5] = experiment: Dose-dependent antisense inhibition of murine TTC39B in mouse primary hepatocytes (Example 2); format: cell-based; conditions: cytofectin, ~16 h
Experimental: Cells were plated at a density of 10,000 cells per well and transfected using cytofectin reagent with 25 nM, 50 nM, 100 nM, and 200 nM concentrations of antisense oligonucleotide, as specified in Table 3. After a treatment period of approximately 16 hours, RNA was isolated from the cells and TTC39B mRNA levels were measured by quantitative real-time PCR. Murine primer probe set mTtc39b_LTS00287 (forward sequence: […], incorporated herein as SEQ ID NO: 94; reverse sequence: […], incorporated herein as SEQ ID NO: 95; probe sequence: […], incorporated herein as SEQ ID NO: 96) was used to measure mRNA levels. TTC39B mRNA levels were adjusted according to total RNA content, as measured by RIBOGREEN®. Results are presented as percent inhibition of TTC39B, relative to untreated control cells.

murine TTC39B mRNA [6] = experiment: Dose-dependent antisense inhibition of murine TTC39B in mouse primary hepatocytes (Example 3); format: cell-based; conditions: cytofectin, ~16 h
Experimental: Cells were plated at a density of 10,000 cells per well and transfected using cytofectin reagent with 6.25 nM, 12.5 nM, 25 nM, 50 nM, 100 nM, and 200 nM concentrations of antisense oligonucleotide, as specified in Table 4. After a treatment period of approximately 16 hours, RNA was isolated from the cells and TTC39B mRNA levels were measured by quantitative real-time PCR. Murine primer probe set mTtc39b_LTS00287 was used to measure mRNA levels. TTC39B mRNA levels were adjusted according to total RNA content, as measured by RIBOGREEN®. Results are presented as percent inhibition of TTC39B, relative to untreated control cells.

murine TTC39B mRNA [7] = experiment: Antisense inhibition of murine TTC39B in mouse primary hepatocytes, single dose; format: cell-based; conditions: 100 nM, cytofectin, ~24 h, vs untreated control; gapmers targeted to SEQ ID NO: 10-14
Method in brief: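 Mouse primary hepatocytes transfected by cytofectin with 100 nM 5-10-5 MOE gapmer (20-mer, phosphorothioate, 5-methylcytosine) for ~24 h. TTC39B mRNA quantified by real-time qPCR, normalized to RIBOGREEN total RNA. Values given as percent inhibition versus untreated cells.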

| Substance | percent inhibition of TTC39A mRNA (murine TTC39A mRNA [1]; 4.375 nM) [%] | percent inhibition of TTC39A mRNA (murine TTC39A mRNA [1]; 8.75 nM) [%] | percent inhibition of TTC39A mRNA (murine TTC39A mRNA [1]; 17.5 nM) [%] | percent inhibition of TTC39A mRNA (murine TTC39A mRNA [1]; 35.0 nM) [%] | percent inhibition of TTC39A mRNA (murine TTC39A mRNA [1]; 70.0 nM) [%] | percent inhibition of TTC39A mRNA (murine TTC39A mRNA [1]; 140.0 nM) [%] | IC50 (murine TTC39A mRNA [1]) [nM] | % inhibition of murine TTC39A mRNA (murine TTC39A mRNA [2]) [%] | further results |
| --- | --- | --- | --- | --- | --- | --- | --- | --- | --- |
| AGTTGGGACCCAGAAGGCCT (eA*eG*eT*eT*eG*dG*dG*dA*d[5mC]*d[5mC]*d[5mC]*dA*dG*dA*dA*eG*eG*e[5mC]*e[5mC]*eT; antisense) [ISIS 474497] | 8 | 5 | 21 | 29 | 53 | 77 | 72 | 94 | – |
| CACCTGGGTTTGAGGTAGCT (e[5mC]*eA*e[5mC]*e[5mC]*eT*dG*dG*dG*dT*dT*dT*dG*dA*dG*dG*eT*eA*eG*e[5mC]*eT; antisense) [ISIS 474498] | 0 | 6 | 33 | 55 | 64 | 80 | 35 | 95 | – |
| CCGCACTTTGATGCCGCCCT (e[5mC]*e[5mC]*eG*e[5mC]*eA*d[5mC]*dT*dT*dT*dG*dA*dT*dG*d[5mC]*d[5mC]*eG*e[5mC]*e[5mC]*e[5mC]*eT; antisense) [ISIS 474435] | 0 | 2 | 11 | 8 | 52 | 76 | 67 | 94 | – |
| CGCCTGGACTTCCGGATAGC (e[5mC]*eG*e[5mC]*e[5mC]*eT*dG*dG*dA*d[5mC]*dT*dT*d[5mC]*d[5mC]*dG*dG*eA*eT*eA*eG*e[5mC]; antisense) [ISIS 474369] | 0 | 14 | 22 | 48 | 62 | 82 | 44 | 96 | – |
| GCATGTAGAGAACTTCCAGG (eG*e[5mC]*eA*eT*eG*dT*dA*dG*dA*dG*dA*dA*d[5mC]*dT*dT*e[5mC]*e[5mC]*eA*eG*eG; antisense) [ISIS 474382] | 0 | 10 | 24 | 41 | 68 | 80 | 42 | 95 | – |
| ISIS 474662: 5-10-5 MOE gapmer antisense oligonucleotide targeting murine TTC39C (antisense eG*eG*eA*eT*eT*dT*d[5mC]*d[5mC]*dG*dG*dG*d[5mC]*dA*dT*d[5mC]*eA*eA*e[5mC]*e[5mC]*eT) | – | – | – | – | – | – | – | – | % inhibition (murine TTC39C mRNA [3]): 95%; percent inhibition of TTC39C mRNA (murine TTC39C mRNA [4]; 500.0 nM): 28%; percent inhibition of TTC39C mRNA (murine TTC39C mRNA [4]; 1000.0 nM): 35%; percent inhibition of TTC39C mRNA (murine TTC39C mRNA [4]; 2000.0 nM): 65%; percent inhibition of TTC39C mRNA (murine TTC39C mRNA [4]; 4000.0 nM): 88%; percent inhibition of TTC39C mRNA (murine TTC39C mRNA [4]; 8000.0 nM): 94%; IC50 (murine TTC39C mRNA [4]): 1300 nM |
| ISIS 474666: 5-10-5 MOE gapmer antisense oligonucleotide targeting murine TTC39C (antisense e[5mC]*eA*eA*eT*e[5mC]*dA*dT*dG*d[5mC]*dT*dG*d[5mC]*dA*d[5mC]*d[5mC]*eA*eG*e[5mC]*e[5mC]*eT) | – | – | – | – | – | – | – | – | % inhibition (murine TTC39C mRNA [3]): 95%; percent inhibition of TTC39C mRNA (murine TTC39C mRNA [4]; 500.0 nM): 35%; percent inhibition of TTC39C mRNA (murine TTC39C mRNA [4]; 1000.0 nM): 54%; percent inhibition of TTC39C mRNA (murine TTC39C mRNA [4]; 2000.0 nM): 79%; percent inhibition of TTC39C mRNA (murine TTC39C mRNA [4]; 4000.0 nM): 92%; percent inhibition of TTC39C mRNA (murine TTC39C mRNA [4]; 8000.0 nM): 95%; IC50 (murine TTC39C mRNA [4]): 800 nM |
| TGTCAGTGACAGTGGCAGCT (antisense eT*eG*eT*e[5mC]*eA*dG*dT*dG*dA*d[5mC]*dA*dG*dT*dG*dG*e[5mC]*eA*eG*e[5mC]*eT) [ISIS 447159] | – | – | – | – | – | – | – | – | percent inhibition of TTC39B mRNA (murine TTC39B mRNA [5]; 25 nM): 41%; percent inhibition of TTC39B mRNA (murine TTC39B mRNA [5]; 50 nM): 60%; percent inhibition of TTC39B mRNA (murine TTC39B mRNA [5]; 100 nM): 76%; percent inhibition of TTC39B mRNA (murine TTC39B mRNA [5]; 200 nM): 85%; percent inhibition of TTC39B mRNA (murine TTC39B mRNA [6]; 6.25 nM): 12%; percent inhibition of TTC39B mRNA (murine TTC39B mRNA [6]; 12.5 nM): 19%; percent inhibition of TTC39B mRNA (murine TTC39B mRNA [6]; 25.0 nM): 37%; percent inhibition of TTC39B mRNA (murine TTC39B mRNA [6]; 50.0 nM): 62%; percent inhibition of TTC39B mRNA (murine TTC39B mRNA [6]; 100.0 nM): 78%; percent inhibition of TTC39B mRNA (murine TTC39B mRNA [6]; 200.0 nM): 86%; % inhibition of murine TTC39B mRNA (murine TTC39B mRNA [7]): 71% |
